Reference: patent publication US20230181535A1, “UBIQUITIN-LIGASE INHIBITORS FOR THE TREATMENT OF CANCER” (FUNDACIÓN PROFESOR NOVOA SANTOS, priority 2020, published 2023)

How the values were obtained:
[1] = test system: Hakai-dependent ubiquitination of the E-cadherin complex; experiment: Hakai-dependent ubiquitination of the E-cadherin complex (immunoprecipitation); type: cell-based; conditions: 293T cells transfected with Flag-Hakai, myc-E-cadherin, v-Src, HA-ubiquitin; IP anti-E-cadherin
Description: For immunoprecipitation experiments, 293 cells were transfected with 3 μg Src, 4 μg Flag-Hakai, and 2 μg HA-ubiquitin and 3 μg E-cadherin with Lipofectamin 2000 (Invitrogen, UK). 24 h after transfection, cells were lysed for 20 min in 1 ml of 1% Triton X-100 lysis buffer (20 mM Tris-HCl pH 7.5, 150 mM NaCl and 1% Triton X-100) containing 10 μg/ml leupeptin, 10 μg/ml aprotinin and 1 mM phenylmethanesulphonyl fluoride (PMSF), supplemented with 10 mM N-ethylmaleimide and 2.5 mM sodium orthovanadate. After centrifugation at 18.000 g for 10 min, the supernatants were immunoprecipitated for 2 h with 2 μg of anti-E-cadherin antibody bound to 60 μl of protein G PLUS-Agarose beads, followed by SDS-polyacrylamide gel electrophoresis (PAGE) and western blotting with the indicated antibodies as previously reported.

[2] = test system: LoVo colon tumour cell line; experiment: MTT cell viability assay, LoVo; type: cell-based; conditions: increasing range of concentrations
Description: (§1) For cytotoxicity assays, 1×10^4 cells were seeded per well into a 96-well plate. After 24 h cells were treated with the indicated inhibitors for 72 h and a MTT colorimetric cell viability assay was performed following manufacturer's instructions (Sigma Aldrich, St Louis, Mo.). Absorbance was measured at 570 and 630 nm using a Multiskan Plus Reader (Nanoquant Infinite M200 Tecan Trading AG, Switzerland). Dose-response curves were designed with Graph Pad Prism Software and the half-maximal inhibitory concentration (IC50) values were calculated. Represented data are the mean±SEM of at least three independent experiments with six replicates per condition.

[3] = test system: normal epithelial MDCK cell line; experiment: MTT cell viability assay, MDCK; type: cell-based; conditions: compared with Hakai-MDCK
Description: as §1

LoVo cells [4] = experiment: Phase-contrast cell phenotype, LoVo; type: cell-based
Description: MDCK, HEK293T, HepG2, MCF7 and ACHN cells were cultured in Dulbecco's Modified Eagles Medium (DMEM). MDCK stably expressing Hakai cells (Hakai-MDCK) were previously reported and were growth in DMEM with G418 (800 μg/ml). […] LoVo and PC-3 cells were cultured in F-12K Medium (Kaighn's Modification of Ham's F-12 Medium) and HT-29 and HCT116 cells in McCoy's 5a Medium Modified. 5637 cells were cultured in RPMI medium. All culture media were supplemented with 1% penicillin/streptomycin and 10% of heat-inactivated fetal bovine serum (FBS) at 37° C. in a humidified incubator with 5% CO2. Cells were monthly tested for mycoplasma contamination and used only for 1-3 months after defrosted. LoVo and HT29 cells were authenticated with the StemElite ID system (Promega). For phase-contrast images, culture cells were photographed with a Nikon Eclipse-TI microscope.

LoVo cells [5] = experiment: Western blotting of EMT markers, LoVo; type: cell-based; conditions: 48 h
Description: For western blot analysis, cells were treated with the indicated inhibitors for 48 h and the whole cell extracts were obtained as described previously. Twenty micrograms of lysates were resolved on a 10% polyacrilamide SDS-PAGE followed by western blot analysis performed as previously described. For immunofluorescence assays cells were grown for 24 h on glass coverslips and treated with the indicated inhibitors for 48 h. Cells were fixed with 4% PFA for 15 min, permeabilized with 0.5% […] and incubated with E-cadherin antibody for 2 h. Coverslips were incubated with fluorescein-tagged secondary antibody (Dakopatts, Sweden) for […]. Finally coverslips were mounted with ProLong Gold antifade reagent (LifeTech, UK) and images were taken in epifluorescence microscope (Olympus) using 40× objective. […] One set of SIM Synthetic Focus images were taken in the DAPI channel for Hoechst 33342 staining, and another set of images were taken in the FITC channel for anti-E-cadherin-AlexaFluor488 labeling and analysed by Structured Illumination Microscopy (SIM™) platform to image the cells and Vala's CyteSeer® Cell-Cell Junction Algorithm to quantify the degree of expression and intracellular location of E-cadherin Vala's CyteSeer® Software can also measure relative DNA content by analyzing Total Integrated Intensity (TII) of the Nuclear Image (Ni) on the Nuclear Mask (Nm). […]

HT-29 cells = experiment: Immunofluorescence of E-cadherin, HT-29; type: cell-based, human
Description: For western blot analysis, cells were treated with the indicated inhibitors for 48 h and the whole cell extracts were obtained as described previously. Twenty micrograms of lysates were resolved on a 10% polyacrilamide SDS-PAGE followed by western blot analysis performed as previously described. For immunofluorescence assays cells were grown for 24 h on glass coverslips and treated with the indicated inhibitors for 48 h. Cells were fixed with 4% PFA for 15 min, permeabilized with 0.5% […] and incubated with E-cadherin antibody for 2 h. Coverslips were incubated with fluorescein-tagged secondary antibody (Dakopatts, Sweden) for […]. Finally coverslips were mounted with ProLong Gold antifade reagent (LifeTech, UK) and images were taken in epifluorescence microscope (Olympus) using 40× objective. Immunofluorescence of E-cadherin and DNA content analysis for FIGS. 22-23 were performed culturing of HT-29 human colorectal adenocarcinoma cell line in 384-well plates with densities of 3,000 cells per well in a total volume of 25 μl. After the completion of the staining, four images (2×2 array) of each well were taken with Vala Sciences' SIM™ with a 20× objective. Each image was acquired as a SIM Synthetic Focus with a z-stack range of 6 μm with 1 μm steps. The SIM Synthetic Focus feature will compile a “best focus” images from multiple images. One set of SIM Synthetic Focus images were taken in the DAPI channel for Hoechst 33342 staining, and another set of images were taken in the FITC channel for anti-E-cadherin-AlexaFluor488 labeling and analysed by Structured Illumination Microscopy (SIM™) platform to image the cells and Vala's CyteSeer® Cell-Cell Junction Algorithm to quantify the degree of expression and intracellular location of E-cadherin Vala's CyteSeer® Software can also measure relative DNA content by analyzing Total Integrated Intensity (TII) of the Nuclear Image (Ni) on the Nuclear Mask (Nm). This analysis was performed by Vala Science. Twenty compounds from were assayed in a “blinded” manner, at 2 test concentrations in 6 replicate wells for first assay and 3 replicate for second assay.

Hakai-MDCK cells = experiment: BrdU proliferation assay, Hakai-MDCK; type: cell-based; conditions: 48 h
Description: (§2) For BrdU assays, 1×10^4 of indicated cells were plated per well into a 96-well plate. After 24 h, cells were treated with the indicated inhibitors for 48 h. Three independent experiments were plated with six replicates per each condition. Cells were treated with […] BrdU for 2 h. BrdU incorporation into newly synthesized DNA was measured using a cell proliferation colorimetric immunoassay kit according to the manufacturer's instructions (Roche, Switzerland). Results are expressed as mean±S.D. Results are represented as percentage of positive cells (mean±S.D) of three independent experiments.

breast cancer MCF7 cell = experiment: BrdU proliferation assay, MCF7; type: cell-based, human; conditions: 48 h
Description: as §2

[6] = test system: prostate cancer PC-3 cells; experiment: BrdU proliferation assay, PC-3; type: cell-based, human; conditions: 48 h
Description: as §2

[7] = test system: HCT116 colon cancer cells; experiment: MTT cell viability assay, HCT116; type: cell-based, human; conditions: concentrations tested in the previous assays
Description: as §1

[8] = test system: Colon cancer HCT116 cells; experiment: BrdU proliferation assay, HCT116; type: cell-based, human; conditions: 48 h
Description: as §2

Structure (SMILES) | Hakai-dependent ubiquitination of E-cadherin complex [1] | cytotoxicity (cell viability, MTT) [2] | sensitivity to treatment (cell viability, MTT) [3] | cell phenotype by phase contrast (LoVo cells [4]) | EMT markers (western blotting) (LoVo cells [5]) | E-cadherin levels at cell-cell contacts (immunofluorescence) (HT-29 cells; 48 h, vs DMSO) | cell proliferation (BrdU) (Hakai-MDCK cells) | cell proliferation (BrdU) (breast cancer MCF7 cell) | cell proliferation (BrdU) [6] | cytotoxic effect (cell viability, MTT) [7] | E-cadherin expression at cell-cell contacts (immunofluorescence, Image J) (HT-29 cells; 48 hours, 5-100 μM, vs DMSO vehicle control) | cell proliferation (BrdU) [8]
O=C(O)c1ccc(-n2nnnc2SCC(=O)c2ccc([N+](=O)[O-])cc2)cc1 [Hakin-1, 4-(5-[2-(4-nitrophenyl)-2-oxoethyl]thiol-1H-tetrazol-1-yl)benzoic acid] | reduction of Hakai-dependent ubiquitination of E-cadherin complex | important inhibitory response | more resistant | modestly induce an epithelial phenotype | confirmed these results | significant increase E-cadherin levels at cell-cell contacts | suppress proliferation | inhibited cell proliferation | inhibited cell proliferation |  |  | 
O=C(O)c1ccc(-n2nnnc2SCC(O)c2ccc([N+](=O)[O-])cc2)cc1 (stereo not drawn) [MKH1] |  |  |  |  |  |  |  |  |  | no cytotoxic effect | significantly increase expression of E-cadherin | inhibit cell proliferation
